Patent US20250206754A1, “PAN-CHEMOKINE ANTAGONISTS FOR USE IN TREATING CANCER AND IMMUNE DISORDERS” ("Micar Innovation" LTD., priority 2022, published 2025)
Several values for one entry are separate records, joined by “and”; a condition that tells them apart may be missing. Equal entries are not always repeated. Where two headings read alike, the source gives them in different places.

How the values were obtained:
CXCR4 = CXCR4 (Homo sapiens, UniProt P61073); assay: Ca^2+ mobilization assay, CXCR4; assay type: cell-based
Method: MIC5023. The synthesis path of MIC5023 is shown on Scheme 1. It consists of 5 chemical transformation in order the final product to be obtained. Two chlorine atoms were added to aromatic rings of MIC5022, and also one methyl group, which makes MIC5023 a close derivative of MIC5022. […] The Ca^2+ mobilization assays retrieved a value of IC50 of about 30 μM and similar for CXCR4; i.e. less than those observed for Hit 1 (MIC5022). MIC5024. The synthesis path of MIC5024 is shown on Scheme 2. It consists of 4 chemical transformation in order the final product to be obtained. The difference between MIC5023 and MIC5024 is only one methyl group introduced in the central five member aromatic ring but it decreased the β-arrestin activity of MIC5024 to CCR1, CCR2 and CCR3 below 30 μM. […] The Ca^2+ mobilization assays retrieved values of IC50>50 μM for CCR7 and CXCR4. Thus, it became evident that this methyl substitution is less sensitive only to CCR3 and CCR5.

CCR2 = CCR2 (Homo sapiens, UniProt P41597); assay: β-arrestin selectivity assay, CCR2; assay type: cell-based
CCR7 [1] = biological target: T1, CCR7 (Homo sapiens, UniProt P32248); assay: Ca^2+ mobilization assay, CCR7; assay type: cell-based; conditions: Ca^2+ mobilization assay, CCR7
T1 construct: expressed in transfected cells
T1 sequence (P32248 25-378): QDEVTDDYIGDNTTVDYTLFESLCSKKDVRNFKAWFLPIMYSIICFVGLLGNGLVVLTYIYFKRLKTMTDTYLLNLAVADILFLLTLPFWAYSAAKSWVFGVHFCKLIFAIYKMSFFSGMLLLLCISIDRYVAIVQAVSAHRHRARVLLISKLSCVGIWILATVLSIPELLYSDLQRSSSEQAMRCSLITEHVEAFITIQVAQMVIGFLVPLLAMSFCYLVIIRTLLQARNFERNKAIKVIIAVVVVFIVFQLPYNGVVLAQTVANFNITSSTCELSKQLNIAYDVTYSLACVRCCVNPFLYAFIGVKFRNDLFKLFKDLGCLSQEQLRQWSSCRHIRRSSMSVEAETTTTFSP
Method: Selected compounds were initially sent for both antagonist and agonist TANGO β-arrestin assays. […] Replacement only on the amide group with CN led to strong activity decrease in β-arrestin assay: only 31% activity at about 30 μM and similar one at 100 μM (Table 1). Five more derivatives with replaced amide group were also tested in parallel by Ca^2+ mobilization assay and they all were not active up to the tested concertation of 100 μM.
To examine the colloid aggregation possibility a β-lactamase enzymatic activity counterscreen assay was performed, which is the commonly adopted tool for detection of such properties of the compounds.

CCR5 = CCR5 (Homo sapiens, UniProt P51681); assay: β-arrestin selectivity assay, CCR5; assay type: cell-based
CCR1 = biological target: T2, CCR1 (Homo sapiens, UniProt P32246); assay: β-arrestin selectivity assay, CCR1; assay type: cell-based
T2 sequence (P32246 1-355): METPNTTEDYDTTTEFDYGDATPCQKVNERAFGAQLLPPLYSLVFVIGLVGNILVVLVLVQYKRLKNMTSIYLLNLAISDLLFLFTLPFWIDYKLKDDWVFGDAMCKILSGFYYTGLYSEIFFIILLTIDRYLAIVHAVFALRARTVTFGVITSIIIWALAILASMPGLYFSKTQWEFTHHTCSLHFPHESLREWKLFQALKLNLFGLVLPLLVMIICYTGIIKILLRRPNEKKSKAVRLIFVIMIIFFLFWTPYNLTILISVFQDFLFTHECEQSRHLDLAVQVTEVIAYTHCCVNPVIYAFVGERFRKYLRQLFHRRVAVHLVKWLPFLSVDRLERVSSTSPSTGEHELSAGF

CCR3 = biological target: T3, CCR3 (Homo sapiens, UniProt P51677); assay: β-arrestin selectivity assay, CCR3; assay type: cell-based
T3 sequence (P51677 1-355): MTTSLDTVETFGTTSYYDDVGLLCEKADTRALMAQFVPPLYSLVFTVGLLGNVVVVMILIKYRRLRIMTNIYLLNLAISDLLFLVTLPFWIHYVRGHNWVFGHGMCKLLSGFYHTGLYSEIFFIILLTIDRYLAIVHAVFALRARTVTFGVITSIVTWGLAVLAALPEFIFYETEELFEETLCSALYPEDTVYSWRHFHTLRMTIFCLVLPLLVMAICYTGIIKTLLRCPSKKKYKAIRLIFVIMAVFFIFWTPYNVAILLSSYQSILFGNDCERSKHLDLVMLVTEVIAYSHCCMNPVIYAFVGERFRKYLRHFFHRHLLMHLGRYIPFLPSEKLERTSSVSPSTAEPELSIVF

CCR7 [2] = biological target: T1, CCR7; conditions: β-arrestin related assay, CCR7, reference [2]; cited from earlier work

Sequence of CCR2 (P41597 whole entry): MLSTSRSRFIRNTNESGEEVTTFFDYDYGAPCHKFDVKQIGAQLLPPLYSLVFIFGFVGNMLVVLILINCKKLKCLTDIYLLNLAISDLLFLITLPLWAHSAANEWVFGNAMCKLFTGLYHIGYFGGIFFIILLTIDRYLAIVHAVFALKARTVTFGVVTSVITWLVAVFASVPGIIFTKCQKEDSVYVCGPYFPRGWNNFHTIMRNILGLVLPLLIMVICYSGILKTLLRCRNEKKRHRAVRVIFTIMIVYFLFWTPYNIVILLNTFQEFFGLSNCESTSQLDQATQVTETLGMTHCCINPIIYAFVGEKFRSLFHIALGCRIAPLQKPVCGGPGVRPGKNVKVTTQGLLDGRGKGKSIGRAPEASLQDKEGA
Sequence of CCR5 (P51681 whole entry): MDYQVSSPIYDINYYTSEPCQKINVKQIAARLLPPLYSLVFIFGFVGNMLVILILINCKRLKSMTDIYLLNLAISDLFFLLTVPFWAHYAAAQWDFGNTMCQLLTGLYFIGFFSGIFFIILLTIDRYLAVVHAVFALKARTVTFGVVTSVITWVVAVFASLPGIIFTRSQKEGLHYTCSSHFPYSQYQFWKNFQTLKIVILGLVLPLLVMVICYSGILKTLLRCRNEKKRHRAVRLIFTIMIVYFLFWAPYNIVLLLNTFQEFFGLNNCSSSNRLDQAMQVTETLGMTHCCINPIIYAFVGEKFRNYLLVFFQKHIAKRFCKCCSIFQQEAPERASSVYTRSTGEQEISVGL
Sequence of CXCR4 (P61073 whole entry): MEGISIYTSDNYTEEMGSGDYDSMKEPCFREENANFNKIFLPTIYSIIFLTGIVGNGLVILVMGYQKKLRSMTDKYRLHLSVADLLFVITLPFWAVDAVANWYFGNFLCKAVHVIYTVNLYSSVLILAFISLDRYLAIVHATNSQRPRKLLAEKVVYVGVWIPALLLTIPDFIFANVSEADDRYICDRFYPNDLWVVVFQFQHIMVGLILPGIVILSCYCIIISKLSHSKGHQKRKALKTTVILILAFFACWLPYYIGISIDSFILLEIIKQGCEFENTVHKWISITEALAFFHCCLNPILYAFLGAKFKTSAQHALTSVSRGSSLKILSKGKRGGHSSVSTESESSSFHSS

Row | IC50 (CXCR4) [µM] | IC50 (CCR2) [µM] | IC50 (CCR7 [1]) [µM] | IC50 (CCR5) [µM] | IC50 (CCR1) [µM] | IC50 (CCR3) | Compound | IC50 (CCR7 [2]) [µM]
1 | ~30 | 31.5 | ~30 | 2.1 | > 30 | > 9.5 µM | Cc1nc(Oc2c(Cl)cccc2C(N)=O)c2c(C)c(-c3ccccc3Cl)sc2n1 [MIC5023, 3-chloro-2-{[6-(2-chlorophenyl)-2,5-dimethylthieno[2,3-d]pyrimidin-4-yl]oxy}benzamide] | –
2 | > 50 | < 30 | > 50 | 7.2 | < 30 | < 30 µM and 7.2 µM | Cc1nc(Oc2c(Cl)cccc2C(N)=O)c2cc(-c3ccccc3Cl)sc2n1 [MIC5024, 3-chloro-2-{[6-(2-chlorophenyl)-2-methylthieno[2,3-d]pyrimidin-4-yl]oxy}benzamide] | –
3 | – | – | – | – | – | – | Cosaline | 0.2
